We go through 25 compounds from US20060089390A1, “3-benzoyl-2,4,5-substituted pyridine derivatives or salts thereof and bactericides containing the same” (Ishihara Sangyo Kaisha, Ltd., priority 2002, published 2006).

Each structure is given as a SMILES string. Where two headings read alike, the source gives them in different places.

Data set [1] relates to wheat powdery mildew. As to the kind of experiment: Test on preventive effect against wheat powdery mildew. It counts as in vivo, Wheat (cultivar: Norin-61-go). As to conditions: Triticum aestivum, foliar spray before inoculation, examined 6 to 8 days after inoculation, read-out: controlling effects as compared with non-treated cases (area of sporogony). As for the experimental part:
Tests on Preventive Effect Against Wheat Powdery Mildew Wheat (cultivar: […] After the drug solution dried, the wheat was inoculated by spreading with conidiospore of fungi of powdery mildew, and the wheat was kept in a thermostatic chamber at 20° C. From 6 to 8 days after the inoculation, the area of sporogony was examined.

The test system of data set [2] is cucumber powdery mildew. As to the kind of experiment: Test on preventive effect against cucumber powdery mildew. It counts as in vivo, Cucumber (cultivar: Suyo). As to conditions: Cucumis sativus, foliar spray before inoculation, examined 6 to 11 days after inoculation, read-out: controlling effects as compared with non-treated cases (area of sporogony). How it is done:
Test on Preventive Effect Against Cucumber Powdery Mildew Cucumber (cultivar: […] After the drug solution dried, the cucumber was sprayed and inoculated with a conidiospore suspension of fungi of powdery mildew, and the cucumber was kept in a thermostatic chamber at 20° C. From 6 to 11 days after the inoculation, the area of sporogony was examined.

In data set [3] the test system is rice blast. As to the kind of experiment: whole plant or invertebrate. It counts as in vivo, Rice (cultivar: Nihonbare). As to conditions: Pyricularia oryzae, foliar, read-out: controlling effects as compared with non-treated cases (number of lesions).
The subject of data set [4] is cucumber powdery mildew. As to the kind of experiment: Test on rainfastness of effect against cucumber powdery mildew. Format: in vivo, Cucumber (cultivar: Suyo). As to conditions: Cucumis sativus, topical, 500 gai/ha. As for the experimental part: Cucumber (cultivar: […] A day after the treatment, 10 mm/hr of artificial rainfall was applied for 1 hour. Together with seedlings not subjected to rainfall treatment (preventive), the cucumber was sprayed and inoculated with a conidiospore suspension of fungi of powdery mildew, and the cucumber was kept in a thermostatic chamber at 20° C. From 6 to 11 days after the inoculation, the number of lesions was examined, and the controlling rate was calculated by comparison with the non-treated cases. The results are shown in Table 5.

Setting [5] is: 10 mm/hr artificial rainfall for 1 hour a day after treatment, read-out: Controlling rate of cucumber powdery mildew (%) Rainfall.
The mark [6] stands for this setting: no rainfall treatment (preventive), read-out: Controlling rate of cucumber powdery mildew (%) Preventive.

Usually melting point stands for the temperature, or range, at which the solid turns liquid. Turning to `COc1cc(C)c(C(=O)c2c(OC)ncc(C)c2C)c(OC)c1OC` [1-20, 3-(2,3,4-trimethoxy-6-methylbenzoyl)-2-methoxy-4,5-dimethylpyridine], the melting point fell in the range of 84 to 86 °C. For the same compound, the pest or weed control at 125 ppm in data set [1] was not below 90%.
In the case of `COc1cc(C)c(C(=O)c2c(SC)ncc(C)c2C)c(OC)c1OC` [1-22, 3-(2,3,4-trimethoxy-6-methylbenzoyl)-4,5-dimethyl-2-methylthiopyridine], the pest or weed control at 125 ppm in data set [1] and in data set [2] was not below 90% in each case. Moreover, the pest or weed control at 500 ppm in data set [3] is not below 90%.
Turning to `CCOc1ncc(Cl)c(C)c1C(=O)c1c(C)cc(OC)c(OC)c1OC` [1-6, 3-(2,3,4-trimethoxy-6-methylbenzoyl)-5-chloro-2-ethoxy-4-methylpyridine], the pest or weed control at 125 ppm in data set [1] was not below 90%.
With `CCOc1ncc(Br)c(Cl)c1C(=O)c1c(C)cc(OC)c(OC)c1OC` [1-7, 3-(2,3,4-trimethoxy-6-methylbenzoyl)-5-bromo-4-chloro-2-ethoxypyridine], the pest or weed control at 125 ppm in data set [1] and in data set [2] was not below 90% throughout.
Turning to `COc1cc(C)c(C(=O)c2c(OC)ccnc2OC)c(OC)c1OC` [2-5, 3-(2,3,4-trimethoxy-6-methylbenzoyl)-2,4-dimethoxypyridine, reference compound], the pest or weed control at 125 ppm in data set [1] was not below 90%. The pest or weed control at 500 g/ha in data set [4] (setting [5]) stood at 0%; in data set [4] (setting [6]), 95%.
On to `CCOc1ncc(Cl)c(Br)c1C(=O)c1c(C)cc(OC)c(OC)c1OC` [1-5, 3-(2,3,4-trimethoxy-6-methylbenzoyl)-4-bromo-5-chloro-2-ethoxypyridine], for which the pest or weed control at 125 ppm in data set [1] and in data set [2] was not below 90% each time.
`COc1cc(C)c(C(=O)c2c(OC)cnc(C)c2C(F)(F)F)c(OC)c1OC` [2-2, 4-(2,3,4-trimethoxy-6-methylbenzoyl)-3-trifluoromethyl-5-methoxy-2-methylpyridine, reference compound]: the pest or weed control at 125 ppm in data set [1] and in data set [2] was not below 90% throughout. Moreover, the pest or weed control at 500 g/ha stood at 35% in data set [4] (setting [5]) and 100% in data set [4] (setting [6]).
In the case of `COc1cc(C)c(C(=O)c2c(F)ncc(C)c2I)c(OC)c1OC` [1-18, 3-(2,3,4-trimethoxy-6-methylbenzoyl)-2-fluoro-4-iodo-5-methylpyridine], the melting point lay within 140 to 141 °C. Also, in data set [1], the pest or weed control at 125 ppm is not below 90%.
Regarding `COc1cc(C)c(C(=O)c2c(OC)ncc(Br)c2C)c(OC)c1OC` [1-36, 3-(2,3,4-trimethoxy-6-methylbenzoyl)-5-bromo-2-methoxy-4-methylpyridine], the pest or weed control at 125 ppm in data set [1] and in data set [2] was not below 90% in each case.
As for `COc1cc(C)c(C(=O)c2c(OC)ncc(Cl)c2C)c(OC)c1OC` [Compound No. 1-35, 3-(2,3,4-trimethoxy-6-methylbenzoyl)-5-chloro-2-methoxy-4-methylpyridine], the pest or weed control at 125 ppm in data set [1] and in data set [2] was not below 90% each time. In addition, the pest or weed control at 500 g/ha in data set [4] (setting [5]) and in data set [4] (setting [6]) was 100% each time. Also, the pest or weed control at 500 ppm in data set [3] was not below 90%.
On to `COc1cc(C)c(C(=O)c2c(OC)ncc(C)c2Br)c(OC)c1OC` [1-13, 3-(2,3,4-trimethoxy-6-methylbenzoyl)-4-bromo-2-methoxy-5-methylpyridine], for which the pest or weed control at 125 ppm in data set [1] and in data set [2] was not below 90% each time.
`COc1cc(C)c(C(=O)c2c(Cl)ncc(I)c2Cl)c(OC)c1OC` [1-17, 3-(2,3,4-trimethoxy-6-methylbenzoyl)-2,4-dichloro-5-iodopyridine]: the pest or weed control at 125 ppm in data set [1] is not below 90%. For the same compound, the pest or weed control at 500 ppm in data set [3] was not below 90%.
As for `COc1cc(C)c(C(=O)c2c(OC)cnc(Br)c2C)c(OC)c1OC` [2-3, 4-(2,3,4-trimethoxy-6-methylbenzoyl)-2-bromo-5-methoxy-3-methylpyridine, reference compound], the pest or weed control at 125 ppm in data set [1] and in data set [2] was not below 90% throughout. Also, the pest or weed control at 500 g/ha in data set [4] (setting [5]) came out at 0%; in data set [4] (setting [6]), 100%. Also, the pest or weed control at 500 ppm in data set [3] was not below 90%.
In the case of `COc1cc(C)c(C(=O)c2c(OC)ncc(Br)c2C(F)(F)F)c(OC)c1OC` [1-14, 3-(2,3,4-trimethoxy-6-methylbenzoyl)-5-bromo-4-trifluoromethyl-2-methoxypyridine], the pest or weed control at 125 ppm in data set [1] and in data set [2] was not below 90% each time. Also, the pest or weed control at 500 g/ha in data set [4] (setting [5]) and in data set [4] (setting [6]) was 100% each time.
`COc1cc(C)c(C(=O)c2c(OC)ncc(Br)c2Cl)c(OC)c1OC` [1-23, 3-(2,3,4-trimethoxy-6-methylbenzoyl)-5-bromo-4-chloro-2-methoxypyridine]: the pest or weed control at 125 ppm in data set [1] and in data set [2] was not below 90% in each case. Besides, the pest or weed control at 500 g/ha in data set [4] (setting [5]) and in data set [4] (setting [6]) was 100% throughout. Moreover, the pest or weed control at 500 ppm in data set [3] was not below 90%.
For the compound `COc1cc(C)c(C(=O)c2c(OC)ncc(Cl)c2SC)c(OC)c1OC` [1-10, 3-(2,3,4-trimethoxy-6-methylbenzoyl)-5-chloro-2-methoxy-4-methylthiopyridine], the pest or weed control at 125 ppm in data set [1] and in data set [2] was not below 90% each time.
On to `COc1cc(C)c(C(=O)c2c(OC)ncc(C)c2C(F)(F)F)c(OC)c1OC` [Compound No. 1-37, 3-(2,3,4-trimethoxy-6-methylbenzoyl)-4-trifluoromethyl-2-methoxy-5-methylpyridine], for which the pest or weed control at 125 ppm in data set [1] and in data set [2] was not below 90% in each case. Also, the pest or weed control at 500 g/ha in data set [4] (setting [5]) and in data set [4] (setting [6]) was 100% each time.
Consider `CCOc1ncc(C)c(C)c1C(=O)c1c(C)cc(OC)c(OC)c1OCC` [1-21, 3-(2-ethoxy-3,4-dimethoxy-6-methylbenzoyl)-2-ethoxy-4,5-dimethylpyridine], for which the pest or weed control at 125 ppm in data set [1] and in data set [2] was not below 90% in each case.
Regarding `CCOc1cc(C(=O)c2c(OC)ncc(Cl)c2Cl)c(C)cc1OC` [1-4, 3-(5-ethoxy-4-methoxy-2-methylbenzoyl)-4,5-dichloro-2-methoxypyridine], the pest or weed control at 125 ppm in data set [1] and in data set [2] was not below 90% throughout.
Take `CCc1c(Cl)cnc(OC)c1C(=O)c1c(C)cc(OC)c(OC)c1OC` [1-2, 3-(2,3,4-trimethoxy-6-methylbenzoyl)-5-chloro-4-ethyl-2-methoxypyridine]: the pest or weed control at 125 ppm in data set [1] and in data set [2] was not below 90% throughout. Besides, the pest or weed control at 500 ppm in data set [3] was not below 90%.
For `COc1cc(C)c(C(=O)c2c(OC)cnc(Cl)c2Cl)c(OC)c1OC` [2-6, 4-(2,3,4-trimethoxy-6-methylbenzoyl)-2,3-dichloro-5-methoxypyridine, reference compound], the pest or weed control at 125 ppm in data set [1] and in data set [2] was not below 90% throughout. Also, the pest or weed control at 500 g/ha in data set [4] (setting [5]) came to 0%; in data set [4] (setting [6]), 90%.
`COc1cc(C)c(C(=O)c2c(OC)cnc(C)c2Cl)c(OC)c1OC` [2-4, 4-(2,3,4-trimethoxy-6-methylbenzoyl)-3-chloro-5-methoxy-2-methylpyridine, reference compound]: the pest or weed control at 125 ppm in data set [1] was not below 90%. Moreover, the pest or weed control at 500 g/ha came to 35% in data set [4] (setting [5]) and 92.5% in data set [4] (setting [6]).
On to `COc1cc(C)c(C(=O)c2c(OC)ncc(C)c2Cl)c(OC)c1OC` [1-24, 3-(2,3,4-trimethoxy-6-methylbenzoyl)-4-chloro-2-methoxy-5-methylpyridine], for which the pest or weed control at 125 ppm in data set [1] and in data set [2] was not below 90% throughout. Besides, the pest or weed control at 500 g/ha turned out to be 85% in data set [4] (setting [5]) and 100% in data set [4] (setting [6]). In data set [3], the pest or weed control at 500 ppm is not below 90%.
As for `COc1cc(C)c(C(=O)c2c(OC)ncc(Br)c2Br)c(OC)c1OC` [1-12, 3-(2,3,4-trimethoxy-6-methylbenzoyl)-4,5-dibromo-2-methoxypyridine], the pest or weed control at 125 ppm in data set [1] and in data set [2] was not below 90% throughout. The pest or weed control at 500 g/ha in data set [4] (setting [5]) stood at 68%; in data set [4] (setting [6]), 100%.
In the case of `COc1cc(C)c(C(=O)c2c(OC)cnc(Cl)c2C)c(OC)c1OC` [2-1, 4-(2,3,4-trimethoxy-6-methylbenzoyl)-2-chloro-5-methoxy-3-methylpyridine, reference compound], the pest or weed control at 125 ppm in data set [1] and in data set [2] was not below 90% in each case. Besides, the pest or weed control at 500 g/ha in data set [4] (setting [5]) came to 0%; in data set [4] (setting [6]), 100%.
